Like-named read-outs stand apart in the source and are kept apart here.
Experiments:
CB1 receptors = target: T1, CB1 receptors (Mus musculus, UniProt P47746); test: biochemical; assay type: binding
T1 construct: the complete brain (excluding the cerebellum) and the spleen were quickly dissected and kept in ice; from tissue; host or cells: mouse brain (excluding cerebellum), membrane preparation
Method: (§1) The affinity of the synthesized compounds towards the CB1 and CB2 cannabinoidergic receptors was evaluated in vitro by radioreceptor binding studies using the method reported hereinunder.
(§2) The technique of the receptor binding allows to establish if, and with which affinity and specificity, a specific compound binds to a particular receptor. To evaluate the affinity of a specific compound to a particular receptor it is necessary to challenge in a particular tissue preparation wherein those specific receptors are present the compound to be tested with a radioactive labelled compound whose affinity for the same receptors is known. […] The amount of radioactivity present in the receptor-compound complex allows furthermore to estimate with great accuracy the amount of compound bound to the receptor. By said method it is therefore possible to establish quickly the affinity of a new compound towards a specific receptor and thus to determine its pharmacological activity. With the same experimental protocol it is possible to evaluate the affinity of the compound towards other receptors and thus establish its specificity degree toward said other receptors.
(§3) The food and water were ad libitum.
(§4) The procedure adopted, based on the use of the compound [^3H]-CP-55,940 (New England Nuclear, Boston, Mass., USA), requires the use of the mouse brain as biological tissue for the evaluation of the affinity towards the CB1 receptors and of the mouse spleen for the affinity assay for the CB2 receptors.
(§5) The animals were sacrificed by cervical dislocation and the complete brain (excluding the cerebellum) and the spleen were quickly dissected and kept in ice.
(§6) The tissue was homogenized in 15 volumes (weight/volume) of TME buffer (50 Mm Tris, 1 mM EDTA and 3 mM MgCl2, pH 7.4) by an Ultra-Turrax and subsequently centrifuged for 10 minutes at 1086×g in a centrifuge refrigerated at 4° C. The recovered supernatant was centrifuged at 45,000×g for 30 minutes at 4° C. by using a Beckman SW41 rotor and the obtained pellet was resuspended in 50 volumes of TME.
(§7) The thus obtained membranes (50-80 μg of proteins) were incubated in the presence of 1 nM of [^3H]-CP55.940 for 1 hour at 30° C. in a final volume of 0.5 ml of TME buffer containing 5 mg/ml of bovine serum albumin (BSA). The non specific binding was measured in the presence of CP55.940 at a 1 μM concentration.
(§8) All the experiments were carried out in polypropylene test tubes pretreated with Sigma-Cote (Sigma Chemical Co. Ltd., Poole, UK) for reducing non specific binding.
(§9) In order to determine the competitive inhibition binding curves, eight different concentrations of each compound were used.
(§10) Incubation was stopped by addition of TME buffer (at 4° C.) containing 5 mg/ml of BSA, and subsequent filtration under vacuum by Whatman GFC filters pretreated with 0.5% of polyethylamine (PEI) and by using a filtering device (Brandell, Gaithersburg, Md., USA). The filters were washed 3 times with […] of Tris HCl buffer (pH 7.4, 4° C.) containing 1 mg/ml of BSA and separately placed in plastic vials containing 4 ml of scintillating liquid (Ultima Gold MV, Packard).
(§11) The radioactivity present in the filters was determined by a scintillator spectrophotometer (Tricarb® 2100, Packard, Meridien, USA).
(§12) Protein determination was carried out by the Bradford method by using the protocol and the reactants supplied by Bio-Rad (Milano, Italy).

CB2 receptors = target: T2, CB2 receptors (Mus musculus, UniProt P47936); test: biochemical; assay type: binding
T2 construct: the complete brain (excluding the cerebellum) and the spleen were quickly dissected and kept in ice; from tissue; host or cells: mouse spleen, membrane preparation
T2 sequence (P47936 whole entry): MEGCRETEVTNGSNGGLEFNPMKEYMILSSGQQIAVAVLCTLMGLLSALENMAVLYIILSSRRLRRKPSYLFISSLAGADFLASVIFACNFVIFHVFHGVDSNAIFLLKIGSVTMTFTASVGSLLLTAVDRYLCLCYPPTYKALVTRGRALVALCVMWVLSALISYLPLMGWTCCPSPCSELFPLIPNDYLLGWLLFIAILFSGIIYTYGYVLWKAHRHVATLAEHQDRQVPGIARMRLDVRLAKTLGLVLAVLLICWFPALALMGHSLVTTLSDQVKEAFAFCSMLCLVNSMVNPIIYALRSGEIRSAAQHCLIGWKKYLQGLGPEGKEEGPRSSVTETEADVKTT
Method: as §1, §2, §3, §4, §5, §6, §7, §8, §9, §10, §11, §12

[1] = system: mouse deferent vessel (vas deferens); test: Ex-vivo model: electrically induced contractions of the isolated deferent vessel (vas deferens); set-up: species or system albino CD1 mice; settings: for Effect on the curve % of inhibition of the contractions/logarithm of the WIN 55212-2 concentration: concentrations lower than or equal to 1×10^−5 M; for Inhibition of the contractions induced by the electric stimulus: concentrations lower than or equal to 1×10^−6 M
Source text: The use of the isolated deferent vessel organ, as a highly sensitive basic system in an ex-vivo model for evaluating the activity of agonist CB1 compounds, has been described by Pertwee et al. in Br. J. Pharmacol., 105:980-4, 1992. This model has been used also to evaluate the properties of antagonist CB1 compounds and to distinguish antagonist CB1 derivatives from inverse agonist CB1 compounds (Rinaldi-Carmona et al., FEBS Lett., 350:240-4, 1994; Pertwee et al., Eur. J. Pharmacol., 456:99-106, 2002). […] This effect is correlated to the action on the prejunctional neuronal CB1 receptors with the consequent release inhibition, induced by electric stimuli, of contractile neurotransmitters (noradrenaline and ATP) (Schlicker and Kathmann, Trends Pharmacol. Sci., 22:565-72, 2001). The inhibition of the contractions induced by the electric stimulus on the deferent vessel in the presence of agonist (or partial agonist) CB1 compounds are expressed as % of contraction inhibition. Said % contraction inhibition is calculated by the ratio between the contraction amplitude determined in the presence of a given concentration of the compound and that detected in its absence (basal value). The curve of the “% of contraction inhibition” as a function of the logarithm of the concentration of agonist (or partial agonist) CB1 compounds, is sigmoidal. The use of the model for the evaluation of antagonist CB1 compounds is based on the evaluation of their efficacy in inhibiting the action of the deferent vessel of agonist (or partial agonist) CB1 compounds. The inhibition is expressed by a shifting towards the right of the curves % of inhibition of contractions/logarithm of the concentration of the agonist CB1 compound, with increasing the concentration of the antagonist CB1 compound.
As reported in the literature, the experimentation has been carried out by using albino CD1 mice weighing 30-40 grams. The mice deferent vessel was recovered and transferred into an instrument for separated organs supplied by the Firm Ugo Basile (Comerio, Italy). The initial tension was of 0.5 g. The procedure adopted is reported in Pertwee et al. in Br. J. Pharmacol., 110:1483-1490, 1993. In particular the procedure and instruments as described by S. Ruiu et al. in J.P.E.T., Vol. 306, 2003, 363-370, have been used.
In a subsequent experiment it was shown that the compound activity was antagonized by the antagonist CB1 compound N-piperidinyl-[8-chloro-1-(2,4-dichlorophenyl)-1,4,5,6-tetrahydrobenzo[6,7]cyclohepta[1,2-c]pyrazol-3-carboxamide], described by S. Ruiu et al. in J.P.E.T., Vol. 306, 2003, 363-370. The experiment was carried out by adding the antagonist (concentration in bath 1 nM) 20 minutes before the first addition of the compound of the invention.

[2] = mouse brain membranes, 1 nM [3H]-CP55.940, read-out: CB1 (brain) Ki
[3] = mouse spleen membranes, 1 nM [3H]-CP55.940, read-out: CB2 (spleen) Ki

T1 sequence (P47746 whole entry): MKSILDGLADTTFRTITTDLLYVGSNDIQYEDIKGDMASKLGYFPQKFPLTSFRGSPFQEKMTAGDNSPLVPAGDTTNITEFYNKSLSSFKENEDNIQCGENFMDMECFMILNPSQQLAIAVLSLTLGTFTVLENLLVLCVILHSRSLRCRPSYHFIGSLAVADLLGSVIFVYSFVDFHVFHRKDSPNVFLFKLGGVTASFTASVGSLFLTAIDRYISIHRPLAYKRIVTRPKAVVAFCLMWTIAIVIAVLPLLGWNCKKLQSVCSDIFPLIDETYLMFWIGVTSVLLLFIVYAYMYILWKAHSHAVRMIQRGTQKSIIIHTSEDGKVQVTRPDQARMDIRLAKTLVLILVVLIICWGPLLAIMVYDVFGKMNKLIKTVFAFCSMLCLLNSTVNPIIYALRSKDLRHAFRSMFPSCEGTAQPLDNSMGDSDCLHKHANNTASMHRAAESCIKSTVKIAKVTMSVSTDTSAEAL

Row | SMILES | Ki (CB1 receptors; [2]) [nM] | Ki (CB2 receptors; [3]) [nM] | Effect on the curve % of inhibition of the contractions/logarithm of the WIN 55212-2 concentration [1] | Inhibition of the contractions induced by the electric stimulus [1] | Ki (CB1 receptors) [nM] | Ki (CB2 receptors) [nM] | Antagonism of the compound activity by a CB1 antagonist ([1]; antagonist N-piperidinyl-[8-chloro-1-(2,4-dichlorophenyl)-1,4,5,6-tetrahydrobenzo[6,7]cyclohepta[1,2-c]pyrazol-3-carboxamide] 1 nM in bath, added 20 minutes before) | Functional character at CB1 ([1]; vas deferens model)
1 | CCOC(=O)c1nn(-c2ccc(S(N)(=O)=O)cc2)c2c1CCc1sccc1-2 [Compound (XA), 1-(4′-sulphonamidophenyl)-4,5-dihydro-1H-thieno[2,3-g]indazol-3-ethyl carboxylate] | > 5000 | > 5000 | did not significantly modify the slope of the curve | did not significantly inhibit the contractions |  |  |  | 
2 | NC(=O)c1nn(-c2ccc(S(N)(=O)=O)cc2)c2c1CCc1sccc1-2 [Compound (XB), 1-(4′-sulphonamidophenyl)-4,5-dihydro-1H-thieno[2,3-g]indazol-3-carboxamide] | > 5000 | > 5000 | did not significantly modify the slope of the curve | did not significantly inhibit the contractions |  |  |  | 
3 | Cc1ccc(Cn2nc(C(=O)NCC3CCC4CC3C4(C)C)c3c2-c2sc(C)cc2C3)cc1 (stereo not drawn) [Example 3.1, N-myrtanyl-6-methyl-1-(4′-methylbenzyl)-1,4-dihydrothieno[3′,2′:4,5]cyclopenta[1,2-c]pyrazol-3-carboxamide] |  |  |  |  | 83.6 ± 14.6 | 48.3 ± 2.6 | antagonized | CB1 agonist

Source: patent US20100215759A1 (priority 2009, published 2010)
